PMC7600127, “Peptide-Based TNF-α-Binding Decoy Therapy Mitigates Lipopolysaccharide-Induced Liver Injury in Mice” (Pharmaceuticals, 2020)

Tested on: LPS-induced liver injury
Assay: Exogenous TNF-α counteraction of SEM18 in LPS-treated mice
Assay type: in vivo, Balb/cJ mice
Details: LSEM + TNF-α group vs LSEM group; TNF-α 0.3 mg/kg then 3 x 0.15 mg/kg i.p. with SEM18; 24 h after LPS 15 mg/kg; n = 5
Experimental: Exogenous TNF-α (recombinant mouse TNF-α; R&D Systems, Minneapolis, MN, USA) was used to confirm whether the therapeutic effects of SEM18 peptide were mediated by decreasing TNF-α binding to TNFR1. A set of mice (n = 5, designated as the LSEM + TNF-α group) were treated with LPS as described earlier. Two hours after LPS, exogenous TNF-α (0.3 mg/kg i.p.) was administered, followed by SEM18 (0.3 mg/kg, i.p.). Supplemental doses of exogenous TNF-α administration (0.15 mg/kg, i.p.) and SEM18 (0.15 mg/kg, i.p.) were administered every 2 h three times. These mice were closely monitored for 24 h (starting from LPS administration). All mice survived the experiment. […]
Figure 7 Exogenous tumor necrosis factor (TNF)-α counteracts the effects of SEM18 peptide. (A) Binding of TNF-α to TNF receptor 1, as measured at 24 h after lipopolysaccharide (LPS) administration using immunofluorescence staining of proximity ligation assay (PLA). (B) Plasma concentrations of aspartate aminotransferase (AST) and alanine aminotransferase (ALT) and the wet/dry (W/D) weight ratio of the liver tissues, as measured at 24 h after LPS administration. […] For apoptosis analysis, liver tissues were assayed using the terminal deoxynucleotidyl transferase dUTP nick-end labeling (TUNEL) method and the mean TUNEL-positive cell in liver tissues (per 0.25 mm^2) was calculated, as measured at 24 h after LPS administration. […]

recombinant mouse TNF-α [exogenous TNF-α]
effect of exogenous TNF-α on the therapeutic effects of SEM18 peptide: counteracting the therapeutic effects of SEM18 peptide
